Data from the Deep4Chem optical property database.
Values belong to the compound of their own block, whether it stands above or below them.

Test: solvent given as SMILES

SMILES: N#Cc1cc(N2c3ccccc3Oc3ccccc32)cc(N2c3ccccc3Oc3ccccc32)c1
fluorescence lifetime (in Cc1ccccc1): 26.1 ns

SMILES: Cc1cc(C)c(B(c2ccc(-c3cc4ccc5cccc6ccc(c3)c4c56)cc2)c2c(C)cc(C)cc2C)c(C)c1
fluorescence lifetime (in Cc1ccccc1): 65 ns

SMILES: CCC(CC)COC1=CC2=C3c4cc(OCC(CC)CC)c(-c5cccs5)n4[B-](F)(F)[n+]4nnn(c43)[B-](F)(F)[N+]2=C1c1cccs1
fluorescence lifetime (in C1CCOC1): 0.5 ns
fluorescence lifetime (in ClCCl): 0.5 ns

SMILES: COc1ccc(/C=C/C2=CC(/C=C/c3ccc(OC)cc3)=[O+][B-](F)(F)O2)cc1
fluorescence lifetime (in CC#N): 1.55 ns
fluorescence lifetime (in CC(C)=O): 1.49 ns
fluorescence lifetime (in CCOC(C)=O): 0.88 ns
fluorescence lifetime (in CCOCC): 0.7 ns
fluorescence lifetime (in ClC(Cl)(Cl)Cl): 0.5 ns
fluorescence lifetime (in ClCCl): 1.3 ns

SMILES: CC(=O)[B-]1(C(C)=O)OC(C)=CC(c2ccc3ccccc3c2)=[O+]1
fluorescence lifetime (in CC#N): 13.6 ns
fluorescence lifetime (in ClC(Cl)(Cl)Cl): 1.6 ns

SMILES: C/C=C/c1cc(OC)cc(OC)c1
fluorescence lifetime (in CC#N): 2.9 ns
fluorescence lifetime (in CCCCCC): 1.5 ns

SMILES: c1ccc(-c2ccc(-c3nc(-n4c5ccccc5c5ccc6c7ccccc7n(-c7ccccc7)c6c54)nc(-n4c5ccccc5c5ccc6c7ccccc7n(-c7ccccc7)c6c54)n3)cc2)cc1
fluorescence lifetime (in Cc1ccccc1): 8.7 ns

SMILES: BrCCCCCCCCCCCCOc1cc2ccc3cccc4ccc(c1)c2c34
fluorescence lifetime (in Cc1ccccc1): 60 ns

SMILES: Cc1cc(C)c(B(c2ccc(C#Cc3cc4ccc5cc(C#Cc6ccc(B(c7c(C)cc(C)cc7C)c7c(C)cc(C)cc7C)cc6)cc6ccc(c3)c4c56)cc2)c2c(C)cc(C)cc2C)c(C)c1
fluorescence lifetime (in Cc1ccccc1): 58 ns

SMILES: Cc1ccc(C2=[N+]3C(=Cc4c(C)cc(C)n4[B-]3(F)F)c3ccccc32)[nH]1
fluorescence lifetime (in C1CCOC1): 6.54 ns
fluorescence lifetime (in CC#N): 6.32 ns
fluorescence lifetime (in CCCCCC): 7.31 ns
fluorescence lifetime (in CO): 6.5 ns
fluorescence lifetime (in Cc1ccccc1): 6.17 ns
fluorescence lifetime (in ClCCl): 6.65 ns

SMILES: CCC1=C(C)C2=Cc3c(I)c(I)c(I)n3[B-](F)(F)[N+]2=C1C
fluorescence lifetime (in C1CCCCC1): 0.358 ns
fluorescence lifetime (in CC(C)=O): 0.198 ns
fluorescence lifetime (in CCO): 0.244 ns
fluorescence lifetime (in CCOC(C)=O): 0.236 ns
fluorescence lifetime (in CO): 0.22 ns
fluorescence lifetime (in OCC(F)(F)F): 0.18 ns

SMILES: FC(F)(F)c1ccc(/C=C/c2ccc(-c3nnc(-c4ccc(-c5cc6ccccc6s5)cc4)o3)cc2)cc1
fluorescence lifetime (in Cc1ccccc1): 0.57 ns
fluorescence lifetime (in ClC(Cl)Cl): 0.7 ns

SMILES: CC1=CC(c2ccc3cc(N(C)C)ccc3c2)=[O+][B-](F)(F)O1
fluorescence lifetime (in C1CCOC1): 3.56 ns
fluorescence lifetime (in CC#N): 1.02 ns
fluorescence lifetime (in CC(C)=O): 2.72 ns
fluorescence lifetime (in CS(C)=O): 1.47 ns
fluorescence lifetime (in Cc1ccccc1): 4.08 ns
fluorescence lifetime (in ClC(Cl)Cl): 3.46 ns
fluorescence lifetime (in ClCCl): 3.69 ns

SMILES: CC(C)(C)c1ccc(N2c3ccc(C(C)(C)C)cc3B3c4cc(C(C)(C)C)ccc4N(c4ccc(C(C)(C)C)cc4)c4cc(-n5c6ccc(C(C)(C)C)cc6c6cc(C(C)(C)C)ccc65)cc2c43)cc1
fluorescence lifetime (in Cc1ccccc1): 6.02 ns

SMILES: COc1cc(OC)cc(C2=[O+][B-](F)(F)OC(c3cccs3)=C2)c1
fluorescence lifetime (in ClCCl): 4.53 ns

SMILES: CCCCCCCC(=O)Oc1ccc2c3cccc4c(OC(=O)CCCCCCC)ccc(c5cccc1c52)c43
fluorescence lifetime (in C1CCOC1): 4.35 ns
fluorescence lifetime (in Cc1ccccc1): 3.72 ns
fluorescence lifetime (in ClC(Cl)(Cl)Cl): 3.89 ns
fluorescence lifetime (in ClC(Cl)Cl): 4.16 ns
fluorescence lifetime (in ClCCl): 4.34 ns
fluorescence lifetime (in c1ccncc1): 3.88 ns

SMILES: c1ccc(-c2nc(-c3ccccc3)nc(-c3ccc(-n4c5ccccc5c5cc6c(cc54)C(c4ccccc4)(c4ccccc4)c4ccccc4-6)cc3)n2)cc1
fluorescence lifetime (in O=P(c1ccccc1)(c1ccccc1)c1ccccc1Oc1ccccc1P(=O)(c1ccccc1)c1ccccc1): 10.3 ns

SMILES: COCCOCCOCCN1C(=O)c2cc(NCCOCCO)c3c4c(cc(NCCOCCO)c(c24)C1=O)C(=O)N(CCOCCOCCOC)C3=O
fluorescence lifetime (in CO): 8.2 ns
fluorescence lifetime (in ClC(Cl)Cl): 9.6 ns
fluorescence lifetime (in O): 4.3 ns

SMILES: CCCCCCCCN(CCCCCCCC)c1ccc(/C=C/c2ccc(C#Cc3ccc(-c4ccc(C#Cc5ccc(/C=C/c6ccc(N(CCCCCCCC)CCCCCCCC)cc6)cc5)cc4)cc3)cc2)cc1
fluorescence lifetime (in Cc1ccccc1): 0.4 ns

SMILES: CC1=[N+]2C(=C(c3ccc(N(C)C)cc3)c3ccc(C)n3[B-]2(F)F)C=C1
fluorescence lifetime (in C1CCCCC1): 2.72 ns
fluorescence lifetime (in Cc1ccccc1): 3.24 ns

SMILES: c1csc(-c2ccc(-c3cccs3)s2)c1
fluorescence lifetime (in CC#N): 0.2 ns
fluorescence lifetime (in ClCCl): 0.17 ns

SMILES: N#Cc1cc(C#N)c(-n2c3ccccc3c3ccccc32)cc1-n1c2ccccc2c2ccccc21
fluorescence lifetime (in Cc1ccccc1): 9 ns

SMILES: Cc1cc(C(F)(F)F)nc2c1ccc1nc(-c3ccc(Cl)cc3)cn12
fluorescence lifetime (in CC#N): 8.1 ns
fluorescence lifetime (in CCCCOC(C)=O): 6.83 ns
fluorescence lifetime (in CCOC(C)=O): 6.72 ns
fluorescence lifetime (in CO): 7.89 ns
fluorescence lifetime (in c1ccccc1): 6.26 ns

SMILES: NNC(=O)NNN1C(=O)c2cc(S(=O)(=O)[O-])cc3c(N)c(S(=O)(=O)[O-])cc(c23)C1=O
fluorescence lifetime (in C1COCCO1): 3.4 ns
fluorescence lifetime (in CC#N): 10.7 ns
fluorescence lifetime (in CC(C)=O): 4.6 ns
fluorescence lifetime (in CC(C)O): 9.6 ns
fluorescence lifetime (in CCCCCCCCO): 8.8 ns
fluorescence lifetime (in CCO): 9.2 ns
fluorescence lifetime (in CCOC(C)=O): 2.5 ns
fluorescence lifetime (in CO): 9.5 ns
fluorescence lifetime (in CS(C)=O): 10.7 ns
fluorescence lifetime (in O): 5.1 ns
fluorescence lifetime (in OCCO): 7.9 ns
fluorescence lifetime (in c1ccncc1): 6.3 ns

Now from value to compound, other results behind:

fluorescence lifetime (in C1CCCCC1): 2.4 ns
SMILES: C(#Cc1cccc2cc(-c3ccccc3)c3cc(-c4cc[b-]5c(c4)c(-c4ccccc4)cc4cccc(C#Cc6ccccc6)[n+]54)cc[b-]3[n+]12)c1ccccc1

fluorescence lifetime (in ClC(Cl)Cl): 1.4 ns
SMILES: COc1ccc2cc(-c3ccc(-c4cc5ccc(OC)cc5oc4=O)cc3)c(=O)oc2c1

fluorescence lifetime (in CCO): 2.1 ns
SMILES: Cc1cc(C)c(-c2nnc(-c3ccc(-n4c5ccccc5c5ccccc54)cc3)o2)c(C)c1

fluorescence lifetime (in ClCCl): 0.36 ns
SMILES: CCN(CC)c1ccc2cc(/C=C3\CCCc4c3[o+]c3cc(N(CC)CC)ccc3c4-c3ccccc3C(=O)O)c(=O)oc2c1

fluorescence lifetime (in O): 2.27 ns
SMILES: Nc1ccc2ccc([O-])cc2c1

fluorescence lifetime (in ClC(Cl)Cl): 1.92 ns
SMILES: CCCCCCN1C(=O)c2cccc3c(-c4cccs4)ccc(c23)C1=O

fluorescence lifetime (in ClC(Cl)Cl): 8.97 ns
SMILES: CCCCCCN1C(=O)c2cccc3cc(/N=C\c4ccc5c(c4)c4ccccc4n5CC)cc(c23)C1=O

fluorescence lifetime (in CCO): 0.05 ns
SMILES: CC1(C)CC(/C=C/c2ccc(-n3cccn3)cc2)=CC(=C(C#N)C#N)C1

fluorescence lifetime (in CCCCC): 0.72 ns
fluorescence lifetime (in CCCCCC): 0.67 ns
fluorescence lifetime (in CCCCCCC): 0.67 ns
fluorescence lifetime (in CCCCCCCC): 0.7 ns
fluorescence lifetime (in CCCCCCCCC): 0.7 ns
fluorescence lifetime (in CCCCCCCCCC): 0.71 ns
fluorescence lifetime (in CCCCCCCCCCCC): 0.74 ns
fluorescence lifetime (in CCCCCCCCCCCCC): 0.76 ns
fluorescence lifetime (in CCCCCCCCCCCCCCC): 0.75 ns
fluorescence lifetime (in CCCCCCCCCCCCCCCC): 0.75 ns
fluorescence lifetime (in CCCCCCCCCCO): 0.8 ns
fluorescence lifetime (in CCCCCCCCCO): 0.74 ns
fluorescence lifetime (in CCCCCCCCO): 0.75 ns
fluorescence lifetime (in CCCCCCCO): 0.75 ns
fluorescence lifetime (in CCCCCCO): 0.76 ns
fluorescence lifetime (in CCCCCO): 0.76 ns
fluorescence lifetime (in CCCCO): 0.78 ns
fluorescence lifetime (in CCCO): 0.8 ns
fluorescence lifetime (in CCO): 0.8 ns
fluorescence lifetime (in CO): 0.78 ns
SMILES: CCC1(CC)c2cc(-c3ccc4c(c3)C(CC)(CC)c3cc(C(C)(C)C)ccc3-4)ccc2-c2ccc(-c3ccc4c(c3)C(CC)(CC)c3cc(C(C)(C)C)ccc3-4)cc21

fluorescence lifetime (in ClC(Cl)Cl): 0.86 ns
SMILES: CCCCCCN1C(=O)c2cccc3c(-c4cc5ccccc5s4)ccc(c23)C1=O

fluorescence lifetime (in ClCCl): 3.7 ns
SMILES: [O-][n+]1c(-c2ccc(Br)cc2)cc(N2CCOCC2)nc1/C=C/c1ccccc1

fluorescence lifetime (in C1CCCCC1): 2.7 ns
fluorescence lifetime (in C1CCOC1): 4.91 ns
fluorescence lifetime (in C1COCCO1): 2.38 ns
fluorescence lifetime (in CC#N): 0.558 ns
fluorescence lifetime (in CCOC(C)=O): 2.46 ns
fluorescence lifetime (in CN(C)C=O): 2.22 ns
SMILES: Cc1cccc(Nc2ccccc2C(=O)O)c1C

fluorescence lifetime (in ClCCl): 5.4 ns
SMILES: CCCCCCOc1cc(C=C2C(=O)c3ccccc3C2=O)c(OCCCCCC)cc1C=C1C(=O)c2ccccc2C1=O

fluorescence lifetime (in ClCCl): 2.67 ns
SMILES: c1ccc(N2N=C(c3ccc4ccc5cccc6ccc3c4c56)CC2c2ccc3ccc4cccc5ccc2c3c45)cc1 (configuration not stated)

fluorescence lifetime (in C1CCOC1): 3.03 ns
SMILES: CC(C)(C)c1ccc(C2=C(c3ccc(N(c4ccccc4)c4ccccc4)cc3)S(=O)(=O)c3c2sc(-c2ccc(N(c4ccccc4)c4ccccc4)cc2)c3-c2ccc(C(C)(C)C)cc2)cc1

fluorescence lifetime (in ClC(Cl)Cl): 6.91 ns
SMILES: CCC[Si](CCC)(CCC)c1cc2ccc3cccc4ccc(c1C(=O)NC(C)(C)C)c2c34

fluorescence lifetime (in ClC(Cl)Cl): 5 ns
SMILES: CCCCCCCCCCCCOc1cc2c3c(ccc4c5c(OC6CCC(C(C)(C)C)CC6)cc6c7c(ccc(c1c34)c75)C(=O)N(C1CCCCC1)C6=O)C(=O)N(C1CCCCC1)C2=O (configuration not stated)

fluorescence lifetime (in ClC(Cl)Cl): 11.2 ns
SMILES: CCCCCCN1C(=O)c2cc(-c3ccc(-n4c5ccccc5c5ccccc54)cc3)c(-c3ccc(-n4c5ccccc5c5ccccc54)cc3)cc2C1=O
fluorescence lifetime (in c1ccc2c(c1)c1ccccc1n2-c1ccc(-c2ccc(-n3c4ccccc4c4ccccc43)cc2)cc1): 10 ns

fluorescence lifetime (in CC#N): 1.09 ns
fluorescence lifetime (in CCCCCC): 0.4 ns
SMILES: C(=C\c1ccc2ccccc2c1)/c1ccc(N(c2ccccc2)c2ccccc2)cc1

fluorescence lifetime (in CO): 0.529 ns
SMILES: CC1(C)C(/C=C/C2=C(Cl)C(=C/C=C3/N(CCCS(=O)(=O)[O-])c4ccccc4C3(C)C)/CCC2)=[N+](CCCS(=O)(=O)[O-])c2ccccc21

fluorescence lifetime (in ClC(Cl)Cl): 1.32 ns
SMILES: CCCCCCc1cc(-c2ccc3c(c2)C2CCCC2N3c2ccc3c(c2)C(C)(C)c2ccccc2-3)sc1/C=C1\C(=O)c2ccc(C(=O)O)cc2C1=O (configuration not stated)

fluorescence lifetime (in C1CCCCC1): 0.058 ns
SMILES: Brc1c(Br)c2ccc3c(Br)c(Br)c4ccc5ccc1c1c5c4c3c21

fluorescence lifetime (in ClC(Cl)Cl): 2.34 ns
SMILES: C[N+]1=c2cc3c(cc2C(C)(C)CC1)=C(c1ccccc1C(=O)O)c1cc2c(cc1O3)Oc1cc3c(cc1=C2c1ccccc1C(=O)O)C(C)(C)CC[N+]=3C

fluorescence lifetime (in ClCCl): 1.4 ns
SMILES: C[Si]1(C)c2cc(-c3cccs3)ccc2C=Cc2ccc(-c3cccs3)cc21

fluorescence lifetime (in C1CCCCC1): 20 ns
SMILES: Cc1ccc(-c2ccccc2)cc1

fluorescence lifetime (in C1CCCCC1): 30 ns
SMILES: C[SiH](C)c1ccc([SiH](C)C)c2ccccc12

fluorescence lifetime (in C1CCOC1): 0.92 ns
SMILES: CCC1(CC)c2cc(Br)ccc2-c2c1c1c(c3c2C(CC)(CC)c2cc(-c4cccs4)ccc2-3)C(CC)(CC)c2cc(Br)ccc2-1

fluorescence lifetime (in C1CCOC1): 0.42 ns
SMILES: Cc1csc(C)c1C1=C(c2c(C)sc(-c3ccc(-c4nc(-c5ccccc5)c(-c5ccccc5)[nH]4)cc3)c2C)C(F)(F)C(F)(F)C1(F)F
